Measurements taken from US11617726B2, “Method for preventing, treating, or ameliorating a microbial infection” (priority 2018, dated 2023).

System: Acinetobacter baumannii isolates
Assay: Antimicrobial susceptibility test, disc diffusion method (CLSI M100-S24)
Format: cell-based
Design: key to Inhibition zone: “NZ” indicated that no zone of inhibition was observed
Settings: for susceptibility category: AK disc; for Inhibition zone: disc diffusion
Protocol: A total of 33 non-duplicate, non-consecutive clinical isolates of Multi-Drug Resistant (MDR) Acinetobacter baumannii were collected from burn wards (“AB1-AB33”). Acinetobacter baumannii ATCC BAA 747 and Pseudomonas aeruginosa ATCC 27853 were used as control strains. The isolates were stored at −80° C. in trypticase soy broth containing 20% glycerol.
Antimicrobial susceptibility tests of the collection of isolates were conducted using the disc diffusion method. The experiment was performed according to the recommendations and guidelines of Clinical Laboratory Standard Institutes (CLSI M100-S24; 2014). Clinical and Laboratory Standards Institute (CLSI), “Performance standards for antimicrobial susceptibility testing; twenty-fourth informational supplement,” Document M100-S24, Clinical and Laboratory Standards Institute (CLSI), Wayne, Pa., USA, 2014.
A panel of commercial antibiotic discs (Amoxicillin (AMX), Amoxicillin/clavulanic acid (AMX/CLA), Piperacillin (PIP), Piperacillin/Tazobactam (PIP/TAZ), Ceftazidime (CAZ), Cefotaxime (CTX), Cefepime (FEP), Cefoxitin (FOX), Aztreonam (ATM), Imipenem (IP), Gentamicin (GEN), Amikacin (AK), Neomycin (NEO), Levofloxacin (LEV), Chloramphenicol (CHL), Tetracycline (TET), sulfamethoxazole/trimethoprim (SUL/TRI) was used for susceptibility testing. All commercial antibiotic discs were purchased from BBL (Becton Dickinson, USA).
Forty grams of Mueller-Hinton Agar (MHA) were suspended in 1 Liter distilled water and then boiled to dissolve the powder completely. The medium was sterilized by autoclaving at 121° C. for 15 min. After autoclaving, the medium was cooled to 45° C. and 25 mL of molten agar media was poured into sterile Petri dishes (90 mm diameter) to give a depth of about 4 mm. The surface of the agar was dried to remove excess moisture before use. The plates were stored at 4-8° C. in sealed plastic bags if not used immediately.
The inoculum suspension was prepared by selecting three to five morphologically similar colonies from overnight growth (16-24 h of incubation) on blood agar medium. […] The suspension density was measured using a UV spectrophotometer calibrated with a 0.5 McFarland standard. The density of the suspension was adjusted to McFarland 0.5 by addition of saline or more microorganisms. The adjusted inoculum suspension was used within 60 min of preparation.
A sterile cotton swab was dipped into the bacterial suspension and the excess fluid was removed by turning the swab against the inside wall of the tube to avoid over-inoculation of plates. The inoculum was spread evenly over the entire surface of the agar plate by swabbing in three directions.
The predetermined panel of antimicrobial disks was applied firmly on the inoculated Mueller-Hinton agar surface within 15 min of inoculation of the plates by a disc dispenser device. A maximum of six disks were accommodated on a 90-mm circular plate.
Within 15 min of application of antimicrobial disks, the plates were inverted and incubated aerobically at 35-37° C. for 18-20 h.
After incubation, inhibition zones were measured at the point where no obvious growth is detected by the unaided eye when the plate is held about 30 cm from the eye. Inhibition zone diameters were measured to the nearest millimeter with a ruler. The plates were read from the back of the plate with reflected light against a dark background. Zone diameters were interpreted and categorized as susceptible “S”, intermediate “I”, or resistant “R” according to the CLSI clinical breakpoint tables (see Table 1 and Table 2).

## NCC[C@H](O)C(=O)N[C@@H]1C[C@H](N)[C@@H](O[C@H]2O[C@H](CN)[C@@H](O)[C@H](O)[C@H]2O)[C@H](O)[C@H]1O[C@H]1O[C@H](CO)[C@@H](O)[C@H](N)[C@H]1O [AK, Amikacin]
Isolate AB1
  susceptibility category: S (Sensitive ≥17)
  Inhibition zone: 24 mm
Isolate AB2
  susceptibility category: S (Sensitive ≥17)
  Inhibition zone: 20 mm
Isolate AB3
  susceptibility category: S (Sensitive ≥17)
  Inhibition zone: 26 mm
Isolate AB4
  susceptibility category: S (Sensitive ≥17)
  Inhibition zone: 21 mm
Isolate AB5
  Inhibition zone: 7 mm
Isolate AB6
  susceptibility category: S (Sensitive ≥17)
  Inhibition zone: 30 mm
Isolate AB7
  Inhibition zone: NZ
Isolate AB8
  Inhibition zone: 12 mm
Isolate AB9
  susceptibility category: S (Sensitive ≥17)
  Inhibition zone: 22 mm
Isolate AB10
  Inhibition zone: NZ
Isolate AB11
  Inhibition zone: NZ
Isolate AB12
  susceptibility category: S (Sensitive ≥17)
  Inhibition zone: 21 mm
Isolate AB13
  susceptibility category: S (Sensitive ≥17)
  Inhibition zone: 22 mm
Isolate AB14
  Inhibition zone: NZ
Isolate AB15
  Inhibition zone: 13 mm
Isolate AB16
  susceptibility category: S (Sensitive ≥17)
  Inhibition zone: 19 mm
Isolate AB17
  susceptibility category: S (Sensitive ≥17)
  Inhibition zone: 22 mm
Isolate AB18
  Inhibition zone: 14 mm
Isolate AB19
  Inhibition zone: 14 mm
Isolate AB20
  Inhibition zone: NZ
Isolate AB21
  Inhibition zone: 11 mm
Isolate AB22
  Inhibition zone: NZ
Isolate AB23
  Inhibition zone: NZ
Isolate AB24
  Inhibition zone: 14 mm
Isolate AB25
  Inhibition zone: NZ
Isolate AB26
  susceptibility category: S (Sensitive ≥17)
  Inhibition zone: 18 mm
Isolate AB27
  Inhibition zone: 9 mm
Isolate AB28
  Inhibition zone: 15 mm
Isolate AB29
  Inhibition zone: 15 mm
Isolate AB30
  Inhibition zone: 15 mm
Isolate AB31
  Inhibition zone: NZ
Isolate AB32
  Inhibition zone: NZ
Isolate AB33
  susceptibility category: S (Sensitive ≥17)
  Inhibition zone: 25 mm
